Assay results reported in US9763904B2, “Position-specific asymmetric deuterium enriched catecholamine derivatives and medicaments comprising said compounds” (Teva Pharmaceuticals International GmbH, priority 2013, dated 2017).
Entries after “also recorded” stand apart in the source; their conditions may differ. Like-named read-outs stand apart in the source and are kept apart here.

What was measured:
[1] = test system: 6-hydroxydopamine (6-OHDA) rodent model of Parkinson's disease; experiment: Dyskinesia: scoring of abnormal involuntary movements (limb, axial, orolingual) after repeated treatment in 6-OHDA lesioned rats; format: in vivo, Sprague-Dawley rats
Excerpt: The effects on motor performance and the development of dyskinesia following administration of deuterated L-DOPA derivatives with different deuterium enrichment at specific position of the side chain have been compared among each other and to L-DOPA in the 6-hydroxydopamine (6-OHDA) rodent model of Parkinson's disease.
Female Sprague-Dawley rats weighing approximately 225 g were housed on a 12-hour light/dark cycle and kept on standard laboratory diet and water ad libitum. The rats were lesioned by unilateral injection of the neurotoxin 6-OHDA. The lesion was validated by measuring the rotational activity after i.p. injection of 2.5 mg/kg D-amphetamine.
Dyskinesia was evaluated after repeated treatment by scoring the animals for abnormal involuntary movements. The rats were scored, by an observer blinded to the experimental design for limb, axial and orolingual involuntary movements.
The equipotent dose as percent of L-DOPA dose that caused the same effect on motor performance and dyskinesia observed following repeated administration of these doses is shown in Table 2.

[2] = test system: 6-hydroxydopamine (6-OHDA) rodent model of Parkinson's disease; experiment: Drug induced contralateral rotations (anti-Parkinson effect, motor performance) in unilaterally 6-OHDA lesioned rats; format: in vivo, Sprague-Dawley rats; conditions: 6-OHDA rats; for Motor Effect [% of L-DOPA effect]: at equipotent dose, contralateral rotations; for Equipotent Dose [% of L-DOPA dose]: dose causing the same effect on motor performance as L-DOPA; for effect on motor performance (in words): comparison between test items
striatal dopamine = conditions: compared to L-DOPA, prior art, cited from earlier work
Parkinson models = conditions: cited from earlier work
[3] = female, Sprague-Dawley, rat, in vivo
[4] = 6-OHDA rats, repeated administration, equipotent dose
[5] = repeated administration of equipotent doses, 6-OHDA rats

Row | Compound | Dyskinesia [% of dyskinesia caused by L-DOPA] [1, 3] | Motor Effect [% of L-DOPA effect] [2] | Equipotent Dose [% of L-DOPA dose] [2] | dyskinesia at equipotent dose (in words) [1, 4] | Dyskinesia [% of dyskinesia caused by L-DOPA] [1, 5] | effect on motor performance (in words) [2] | striatal dopamine levels / output (in words) (striatal dopamine; listed as α, β-D2-L-DOPA) | dyskinesia at equipotent dose (in words) ([1]; rat, in vivo) | equi-effective dose compared to L-DOPA (Parkinson models; Parkinson models, literature) | motor activity (in words) (Parkinson models; compared to L-DOPA, several Parkinson models) | striatal dopamine levels / output (in words) (striatal dopamine; listed as α, β,β-D3-L-DOPA) | striatal dopamine levels / output (in words) (striatal dopamine; listed as α,β,β-D3-L-DOPA)
1 | N[C@@H](Cc1ccc(O)c(O)c1)C(=O)O [Test Item A, L-2-amino-3-(3,4-dihydroxyphenyl) propionic acid] | 100% of dyskinesia caused by L-DOPA | 100% of L-DOPA effect | 100% of L-DOPA dose | – | – | – | – | – | – | – | – | –
2 | [2H][C@@H](c1ccc(O)c(O)c1)[C@]([2H])(N)C(=O)O [Test Item B, S/S-2-amino-2,3-dideutero-3-(3,4-dihydroxyphenyl) propionic acid] | – | 100% of L-DOPA effect | 30% of L-DOPA dose | not reduced in comparison to L-DOPA | 100% of dyskinesia caused by L-DOPA | significantly greater compared to α, β, β-D3-L-DOPA [C] and L-DOPA [A] | increase and prolong the output of striatal dopamine significantly more than L-DOPA; also recorded: highest striatal dopamine concentrations | – | – | – | – | –
3 | [2H]C([2H])(c1ccc(O)c(O)c1)[C@]([2H])(N)C(=O)O [Test Item C, L-2-amino-2,3,3-trideutero-3-(3,4-dihydroxyphenyl) propionic acid] | 50% of dyskinesia caused by L-DOPA | 100% of L-DOPA effect | 60% of L-DOPA dose | – | – | – | – | significantly less dyskinesia than L-DOPA | about 60% | improved motor activity compared to L-DOPA | increase and prolong the output of striatal dopamine significantly more than L-DOPA | higher longer-lasting striatal dopamine levels than L-DOPA
4 | L-2-amino-2,3,3*-trideutero-3-(3,4-dihydroxyphenyl) propionic acid [Test Item D] | – | 100% of L-DOPA effect | 35% of L-DOPA dose | reduction of dyskinesia as the triple-deuterated α, β, β-D3-L-DOPA [C] | 50% of dyskinesia caused by L-DOPA | motor effect equivalent to the di-deuterated α, β-D2-L-DOPA [B] | – | – | – | – | – | –
